Experimental findings from ChEMBL document CHEMBL3797025, “Spirooxadiazoline oxindoles with promising in vitro antitumor activities” (Medchemcomm, 2016) are described below.

SMILES strings stand for the structures. The source made the active and inactive calls. No cut-off for these calls is given here.

The nature of data set [1]: Antiproliferative activity against human p53 +/+ HCT116 cells measured after 72 hrs by MTS assay. The format is functional. The conditions noted are these: HCT-116, 72 h. Background: Formazan colour is commonly taken as a measure of viable cells.
Data set [2] can be described thus: Antiproliferative activity against human p53 -/- HCT116 cells measured after 72 hrs by MTS assay. In kind it is functional. The conditions noted are these: HCT-116, 72 h.
A further data set relates to HepG2. As to the kind of experiment: Antiproliferative activity against human HepG2 cells expressing wild-type P53 measured after 72 hrs by MTS assay. The format is functional. The conditions noted are these: HepG2, 72 h.
Data set [3] can be described thus: Antiproliferative activity against human SW620 cells expressing P53 mutant measured after 72 hrs by MTS assay. The format is functional. Conditions: SW-620, 72 h.
Data set [4] concerns HCT-116. As to the kind of experiment: Induction of apoptosis in human p53 +/+ HCT116 cells assessed as activation of caspase3 at 5 or 10 uM after 24 hrs by Caspase-Glo 3/7 assay. The format is functional, cell-based.
For data set [5], the target named is Cellular tumor antigen p53 (Homo sapiens) (UniProt P04637). The data set can be described thus: Induction of p53 phosphorylation at serine-15 in human p53 +/+ HCT 116 cells bat 5 or 10 uM after 24 hrs by western blot analysis. In kind it is cell-based.
Chain of Cellular tumor antigen p53 (Homo sapiens) (P04637 whole entry, looked up): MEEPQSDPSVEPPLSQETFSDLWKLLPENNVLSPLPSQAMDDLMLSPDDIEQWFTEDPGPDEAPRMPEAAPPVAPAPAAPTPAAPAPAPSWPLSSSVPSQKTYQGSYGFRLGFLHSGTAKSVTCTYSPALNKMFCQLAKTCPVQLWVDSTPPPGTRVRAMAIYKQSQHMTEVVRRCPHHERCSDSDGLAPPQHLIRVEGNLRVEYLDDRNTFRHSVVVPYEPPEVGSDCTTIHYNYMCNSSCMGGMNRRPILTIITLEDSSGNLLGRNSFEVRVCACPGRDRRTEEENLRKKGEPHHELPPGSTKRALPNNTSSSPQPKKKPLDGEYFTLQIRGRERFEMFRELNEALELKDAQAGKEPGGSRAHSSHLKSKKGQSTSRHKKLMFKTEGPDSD
The nature of data set [6]: Half life in Sprague-Dawley rat liver microsomes at 37 degC in presence of NADPH generating system by HPLC analysis. The format is ADME.
Data set [7] has as its system HCT-116. The data set can be described thus: Induction of apoptosis in human p53 +/+ HCT116 cells assessed as activation of caspase7 at 5 or 10 uM after 24 hrs by Caspase-Glo 3/7 assay. The format is functional, cell-based.
A short description of data set [8]: Metabolic stability at human plasma assessed as compound degradation at 37 degC after 72 hrs by HPLC analysis. The format is ADME, cell-free. The conditions noted are these: read-out: Drug degradation.
A short description of data set [9]: Chemical stability in phosphate buffer at pH 7.4 and 37 degC measured for 3 days by HPLC analysis. The format is physicochemical. The conditions noted are these: pH 7.4, 72 h.
Data set [10] has as its system HCT-116. The data set can be described thus: Induction of apoptosis in human p53 +/+ HCT116 cells assessed as increase in PARP cleavage at 5 or 10 uM after 24 hrs by western blot analysis. In kind it is functional, cell-based. In general terms: Immunoblotting shows a protein as a band on a membrane.

As a reminder, the GI50 is the concentration giving 50% growth inhibition. A higher GI50 goes with less potent growth inhibition. For `O=C1Nc2ccccc2[C@]12ON=C(c1ccc(Cl)cc1)N2c1cccc(Cl)c1`, in [1], the GI50 is 33.7 µM.
As for `O=C1Nc2ccc(Br)cc2[C@]12ON=C(c1ccccc1)N2c1ccc(Cl)cc1`, the GI50 in data set [1] turned out to be 21.9 µM; in [2], 25.8 µM.
Take `O=C1Nc2ccc(Cl)cc2[C@]12ON=C(c1ccc(Cl)cc1)N2c1ccc(Cl)cc1`: the 50% growth inhibitory concentration (GI50) in [1] stood at 17.6 µM; in data set [2], 18 µM.
Regarding `O=C1Nc2ccccc2[C@]12ON=C(c1ccccc1)N2c1ccc(F)cc1`, in data set [1], halving of growth (GI50) required 99.6 µM.
For `O=C1Nc2ccc(Cl)cc2[C@]12ON=C(c1ccc(Cl)cc1)N2c1cccc(Cl)c1`, the figures for the GI50 in data set [1] and in data set [2] were 25.6 µM and 29 µM, respectively.
For `COc1ccc(C2=N[C@@H](c3ccc(Cl)cc3)[C@@H](c3ccc(Cl)cc3)N2C(=O)N2CCNC(=O)C2)c(OC(C)C)c1` [NUTLIN-3], the GI50 in data set [1] came out at 4 µM; in [2], 47.8 µM.
As for `O=C1Nc2ccccc2[C@]12ON=C(c1ccccc1)N2c1cccc(Cl)c1`, in [1], the 50% growth inhibitory concentration (GI50) turned out to be 70.1 µM.
In the case of `O=C1Nc2ccc(Br)cc2[C@]12ON=C(c1ccccc1)N2c1cccc(Cl)c1`, the 50% growth inhibitory concentration (GI50) in data set [1] was 4.7 µM; in the data set with HepG2 it was 3.5 µM; in [2], 7.5 µM; in data set [3], 4.2 µM.
With `O=C1Nc2ccc(Br)cc2[C@]12ON=C(c1cccc(Br)c1)N2c1cccc(Br)c1`, the 50% growth inhibitory concentration (GI50) stood at 3.2 µM in [1], 2.2 µM in the data set on HepG2, 6 µM in data set [2] and 3.7 µM in [3].
Take `O=C1Nc2ccccc2[C@]12ON=C(c1cccc(Cl)c1)N2c1cccc(Cl)c1`: the GI50 in [1] was 32.6 µM.
Consider `O=C1Nc2cc(Cl)ccc2[C@]12ON=C(c1ccc(Cl)cc1)N2c1ccccc1`, for which the 50% growth inhibitory concentration (GI50) in [1] is 26.5 µM; in data set [2], 30.6 µM.
Regarding `O=C1Nc2ccc(Cl)cc2[C@]12ON=C(c1cccc(Cl)c1)N2c1cccc(Cl)c1`, the GI50 in data set [1] worked out at 4.6 µM; with HepG2, 3.3 µM; in data set [2], 6.8 µM; in data set [3], 3.9 µM.
Regarding `O=C1Nc2ccc(Br)cc2[C@]12ON=C(c1ccccc1)N2c1ccccc1`, the GI50 in data set [1] turned out to be 13.5 µM.
On to `O=C1Nc2cc(Cl)ccc2[C@]12ON=C(c1cccc(Cl)c1)N2c1cccc(Cl)c1`, for which the 50% growth inhibitory concentration (GI50) in data set [1] is 6.6 µM; with HepG2, 4.4 µM; in data set [2], 7.8 µM; in data set [3], 6.7 µM.
As to `O=C1Nc2ccc(Cl)cc2[C@]12ON=C(c1ccccc1)N2c1cccc(Cl)c1`, the GI50 worked out at 26.4 µM in data set [1] and 41.6 µM in [2].
The term half-life denotes how long it takes for the measured level to halve. As for `O=C1Nc2ccc(Br)cc2[C@]12ON=C(c1cccc(Cl)c1)N2c1cccc(Cl)c1`, the GI50 in data set [1] came out at 2 µM; in the data set with HepG2, 2.1 µM; in data set [2] it was 2.9 µM; in [3], 2.1 µM. In addition, the outcome in the data set on HCT-116 [4], in the data set on HCT-116 [7] and with HCT-116 [10] was Active. For the same compound, the result in data set [5] was inactive. In addition, the half-life in data set [6] was 33.5 min. Further, in [8], the metabolised at 72 h was found to be 38%. The Stability result in data set [9] was “Stable”.
For the compound `O=C1Nc2ccc(Cl)cc2[C@]12ON=C(c1ccccc1)N2c1ccc(Cl)cc1`, the GI50 is 27.1 µM in [1] and 27 µM in data set [2].
For `O=C1Nc2cc(Cl)ccc2[C@]12ON=C(c1ccc(Cl)cc1)N2c1ccc(Cl)cc1`, halving of growth in [1] (GI50) required 13.2 µM.
Still for that read-out and setting: the figure for `Cc1ccc(C2=NO[C@@]3(C(=O)Nc4cc(Cl)ccc43)N2c2ccccc2)cc1` is 50.6 µM.
Same read-out and setting: under `O=C1Nc2ccc(Cl)cc2[C@]12ON=C(c1ccccc1)N2c1ccccc1` stands 39.1 µM; under `O=C1Nc2cc(Cl)ccc2[C@]12ON=C(c1cccc(Cl)c1)N2c1ccc(Cl)cc1`, 28.7 µM.
As for `O=C1Nc2ccc(Cl)cc2[C@]12ON=C(c1cccc(Cl)c1)N2c1ccc(Cl)cc1`, the GI50 in data set [1] worked out at 21.3 µM; in [2] it was 21.8 µM.
As for `O=C1Nc2ccc(Br)cc2[C@]12ON=C(c1ccc(Cl)cc1)N2c1cccc(Cl)c1`, the GI50 in [1] came to 7.7 µM; with HepG2, 4.1 µM; in data set [2] it was 12.3 µM; in data set [3] it was 8 µM.
In [1], `O=C1Nc2ccccc2[C@]12ON=C(c1ccc(Cl)cc1)N2c1ccc(Cl)cc1` gave a GI50 of 31.2 µM.
As to `O=C1Nc2ccc(Br)cc2[C@]12ON=C(c1cccc(Cl)c1F)N2c1cccc(Cl)c1`, the concentration for 50% growth inhibition (GI50) is 3.2 µM in data set [1], 2.5 µM in the data set on HepG2, 4.4 µM in data set [2] and 3.5 µM in data set [3].
With `O=C1Nc2cc(Cl)ccc2[C@]12ON=C(c1ccc(Cl)cc1)N2c1cccc(Cl)c1`, it took 20.2 µM to inhibit growth in data set [1] by half (GI50).
Turning to `O=C1Nc2ccccc2[C@]12ON=C(c1cccc(Cl)c1)N2c1ccc(Cl)cc1`, the concentration for 50% growth inhibition (GI50) in [1] turned out to be 38.4 µM.
As for `O=C1Nc2ccc(Br)cc2[C@]12ON=C(c1cccc(Cl)c1)N2c1cccc(Cl)c1F`, the 50% growth inhibitory concentration (GI50) in data set [1] stood at 1.7 µM; in the data set with HepG2 it was 1.2 µM; in data set [2], 2 µM; in [3], 2 µM.
In [1], `O=C1Nc2ccccc2[C@]12ON=C(c1ccccc1)N2c1ccc(Cl)cc1` showed a concentration for 50% growth inhibition (GI50) of 54.5 µM.
For `O=C1Nc2cc(Cl)ccc2[C@]12ON=C(c1ccccc1)N2c1ccccc1`, the 50% growth inhibitory concentration (GI50) came to 28.4 µM in [1] and 35.5 µM in [2].
As to `O=C1Nc2ccc(Br)cc2[C@]12ON=C(c1cccc(Cl)c1)N2c1ccc(F)c(Cl)c1`, the concentration for 50% growth inhibition (GI50) in [1] came out at 6.6 µM; in the data set with HepG2, 4 µM; in [2] it was 7.2 µM; in data set [3] it was 6.7 µM.
`O=C1Nc2cc(Cl)ccc2[C@]12ON=C(c1ccccc1)N2c1ccc(Cl)cc1` yielded a GI50 in data set [1] of 31.8 µM.
